This data set in a line: in vitro. Particulars: human, hela cells, % viability.

The viability is a read-out of living cells in per cent, often relative to untreated cells.

With `Cn1c(CSc2nc3sc4c(c3c(=O)[nH]2)CCCC4)nnc1SC/C=C/c1ccccc1` [CBK264428], the viability at 28.5 h, 10 µM was 107%. On the same count and under the same terms, with `Cc1ccc(N(CC(=O)N/N=C/c2ccccc2)S(=O)(=O)c2ccccc2)cc1` [CBK262090] the figure was 88.3%; with `Cc1ccc(C2(CN3CCC(NC(=O)c4cc[nH]n4)CC3)CC2)cc1` [CBK285360], 97.8%. In the case of `O=C(C1CCCC1)N1CCC(n2c(=O)oc3ccccc32)CC1` [CBK284349], the viability at 28.5 h, 10 µM was determined as 83.7%.

For the compound `CCOC(=O)C1(N)CCCC1` [CBK073836C], the viability at 28.5 h, 10 µM came to 94.4%. Take `O=C(NCc1nnc(-c2cccs2)o1)C1(c2ccccc2)CC1` [CBK284635]: the viability at 28.5 h, 10 µM is 96.2%. On the same count and under the same terms, as for `CC(C)(C)c1csc(NC(=O)C2CCCCC2)n1` [CBK058720], the figure is 98.1%; as for `CCN(CC)CC1CCCN(C(=O)CCn2ccc3ccncc32)C1` (stereo not drawn) [CBK285174], 85.4%. Same read-out and setting: as for `CC(=O)N(Cc1ccccc1)c1ccc(C(=O)O)cc1` [CBK286882], the figure is 102%; as for `O=C(Nc1cnc(-c2ccc(F)c(Cl)c2)c(-c2cccnc2)n1)c1ccc(N2CCCC2=O)cc1` [CBK036794], 107%. Same read-out and setting: as for `CC1(C)[C@H]2CC[C@]1(C)[C@@H](OCCNc1ccccc1)C2` [CBK021967], the figure is 87.8%; as for `C=CCC1(CC=C)CCN1C(=O)c1cc2c([nH]c1=O)CCCCC2` [CBK282524], 103%. Regarding `Cc1cc(C)c(NC(=O)CSCc2cc(O)[nH]n2)c(Cl)c1` [CBK268302], the viability at 28.5 h, 10 µM is 93.8%. Still for that read-out and setting: with `COc1cccc(Cc2c(C)nc3c(C(=O)NCCCN4CCCC4=O)cnn3c2C)c1` [CBK162055] the figure was 111%; with `COc1ccccc1C(CNC(=O)Nc1cc(C)on1)N1CCCC1` (stereo not drawn) [CBK304586], 94.5%; with `Cc1noc2nc(C3CCN(C(=O)C4CC4)CC3)cc(C(F)F)c12` [CBK285306], 95.8%. On the same count and under the same terms, as for `COc1ccc(NC(=O)C[C@@H]2C[C@@H](C(C)C)[C@H](CC#N)C=C2C)cn1` [CBK289216], the figure is 85.7%; as for `O=C1CC(c2ccccc2)c2c(n3ccsc3nc2=O)N1` (stereo not drawn) [CBK287923], 98.7%. `Cc1ccc(-c2ncc(OCc3cccs3)nc2N)cc1C` [CBK145146]: the viability at 28.5 h, 10 µM stood at 101%. Regarding `CC(C)(C)c1ccc(OCC(O)Cn2c(CO)nc3ccccc32)cc1` (stereo not drawn) [CBK293973], the viability at 28.5 h, 10 µM worked out at 81.7%. Same read-out and setting: with `CSc1nsc(SCC(=O)c2cc3ccccc3oc2=O)n1` [CBK268833] the figure was 105%; with `CC[C@H]1CN(C(=O)c2cccnc2)CC[C@H]1CC(=O)N1CCC(C(N)=O)CC1` [CBK288772], 104%; with `O=C(NS(=O)(=O)c1ccccc1)c1ccccc1` [CBK288429], 88.2%. On the same count and under the same terms, as for `CC(Sc1nc(-c2ccccc2F)n[nH]1)C(=O)N1CCNC1=O` (stereo not drawn) [CBK295594], the figure is 106%.

`O=C(NC(=O)C1CCNCC1)Nc1ccc(F)cc1F` [CBK034793]: the viability at 28.5 h, 10 µM was 115%. Still for that read-out and setting: with `Cc1cc(N2CCN(C(=O)c3c[nH]c(=O)[nH]3)CC2)nc(C(C)C)n1` [CBK296681] the figure was 111%. Same read-out and setting: with `O=C(c1ccco1)N1CCC(n2c(=O)oc3ccc(Cl)cc32)CC1` [CBK284343] the figure was 103%; with `O=C(CN1CCc2c([nH]c3ccccc23)C12CCN(Cc1ccc(F)cc1)C2)Nc1ccccc1` (stereo not drawn) [CBK059450], 96%; with `C#CCNC(=O)CC[C@H]1CNC(=O)[C@@H]2[C@@H](CCN2Cc2cccs2)N1C` [CBK289033], 103%. The same measure, in the same setting: with `O=C(CCn1cnnn1)N1C[C@H]2CC[C@@H]1CN(Cc1cccnc1)C2` [CBK307029] the figure was 88.9%; with `c1ccc(CN2CCN(Cc3ccccc3)C2c2ccco2)cc1` [CBK260888], 99.6%; with `c1ccc(CN2CCN(c3nccnc3OCc3cccnc3)CC2)cc1` [CBK083129T], 91.3%. With `COc1ccc(-n2ncc3c2CC(C)(C)CC3NS(C)(=O)=O)cc1` (stereo not drawn) [CBK306759], the viability at 28.5 h, 10 µM is 88.7%.

Consider `Oc1ccc(-n2cc(-c3ccc(F)cc3)nn2)cc1` [CBK113126], for which the viability at 28.5 h, 10 µM worked out at 82%.

As for `CN(Cc1c(F)cccc1Cl)C(=O)CSc1nc(CC(=O)O)cs1` [CBK296708], the viability at 28.5 h, 10 µM was 95.3%.

For the compound `Cc1ccc(C(=O)N2CCn3c2nc2ccccc23)cc1` [CBK288204], the viability at 28.5 h, 10 µM amounted to 108%.

As for `CCOc1cccc(-c2cncc(N3CCCC3CO)n2)c1` (stereo not drawn) [CBK066004], the viability at 28.5 h, 10 µM worked out at 89.7%. The same measure, in the same setting: as for `CCC(=O)N1CCC(c2cc(C(F)(F)F)n3nc(C)cc3n2)CC1` [CBK284367], the figure is 96.9%. Regarding `O=C(NCCF)c1cn2cc(-c3cccs3)n(CC3CC3)c(=O)c2n1` [CBK307367], the viability at 28.5 h, 10 µM is 96.8%. On the same count and under the same terms, as for `CC(C)[C@H](NC(=O)C1CC(=O)N(c2ccc(F)cc2)C1)C(=O)N1CCC(C(=O)O)CC1` (stereo partly drawn) [CBK286669], the figure is 94.8%; as for `O=c1sn(C2CCCCC2)c(=O)n1Cc1ccc(F)cc1` [CBK113604], 90.8%; as for `CCCc1cc(C(=O)N2CCCN(Cc3cnn(CC)c3)CC2)[nH]n1` [CBK305293], 92.3%.

For `CCN(CC)Cc1ccc(C(=O)N2CCC(c3ccncc3)CC2)o1` [CBK283051], the viability at 28.5 h, 10 µM was found to be 105%. Still for that read-out and setting: as for `COCC(=O)N1CCN(C(=O)N2CCOCC2)C[C@@H]1C(=O)OC` [CBK289613], the figure is 109%; as for `O=S(=O)(Nc1cccc(-c2cnco2)c1)c1ccc(Cl)c(Cl)c1` [CBK067117], 80.9%; as for `c1ccc(-c2nnc(COc3ccc(-c4cnc5ccccc5n4)cc3)o2)cc1` [CBK269707], 90.4%.

Regarding `O=[N+]([O-])c1ccc2nc(Sc3nc4ccccc4[nH]3)sc2c1` [CBK263356], the viability at 28.5 h, 10 µM turned out to be 89.8%. On the same count and under the same terms, with `O=C(NCCN1CCOCC1)c1cc(-n2cnnc2)ccc1Cl` [CBK268023] the figure was 97.1%. Same read-out and setting: with `Cc1oc2ccc(O)cc2c1C(=O)NCCCN1CC(C)CC(C)C1` (stereo not drawn) [CBK282161] the figure was 110%; with `O=C(C1CCCO1)N1CCCCCC1c1cc(-c2cccs2)on1` (stereo not drawn) [CBK284340], 97.6%; with `Cc1nn(C2CCCO2)c(=O)nc1N` (stereo not drawn) [CBK021028], 101%. Same read-out and setting: as for `O=C(O)c1cccc(-n2c(S)nnc2-c2ccncc2)c1` [CBK269260], the figure is 105%; as for `CCC(c1ccc(F)cc1)n1cncc1-c1cnn(C)c1` (stereo not drawn) [CBK281883], 95.7%. `CCOC(=O)CC(=O)COc1nc2cc3c(nc2o1)CCCC3` [CBK269204]: the viability at 28.5 h, 10 µM is 89.8%. The same measure, in the same setting: with `O=C(NCc1ccc2c(c1)OCO2)N1CCCCC1CO` (stereo not drawn) [CBK156166] the figure was 89.3%; with `CN(CC1CCN(C(=O)OC(C)(C)C)CC1)c1ccnc(-c2ccncc2)n1` [CBK166064], 101%; with `c1ccc(Cn2cc(-c3nccnc3OC(c3ccccc3)c3ccccc3)cn2)cc1` [CBK107093], 88.2%.

For the compound `O=C(COC(=O)CN1C(=O)C(=O)c2ccccc21)Nc1cccc2ccccc12` [CBK263915], the viability at 28.5 h, 10 µM was determined as 90.5%. For `COc1cccc(N(CC(=O)Nc2ccc(C)c(C)c2)S(=O)(=O)c2ccc(C)cc2)c1` [CBK263761], the viability at 28.5 h, 10 µM is 103%.

In the case of `O=c1[nH]c2ncc(-c3ccco3)nc2n1Cc1cccs1` [CBK064438], the viability at 28.5 h, 10 µM is 103%.

For `CC1=CC(C)C(COC(N)=O)(COC(N)=O)C(C)C1` (stereo not drawn) [CBK020974], the viability at 28.5 h, 10 µM (bulk resorufin, single well) is 93.7%. Take `CS(=O)(=O)N(CC(=O)N1CCN(C(c2ccccc2)c2ccccc2)CC1)c1cccc(F)c1` [CBK266330]: the viability at 28.5 h, 10 µM is 105%. Still for that read-out and setting: with `O=C(O)CCC(=O)Nc1cccc(C(=O)Nc2ccc(Br)cc2)c1` [CBK269129] the figure was 94.6%; with `O=C(O)C1CCCCC1C(=O)NCCc1ccc(Cl)cc1` (stereo not drawn) [CBK267972], 98.5%; with `CN(C)CCP(=O)(c1ccccc1)c1ccccc1` [CBK026596], 109%. For the compound `Cc1cccc(OCCn2c(SCCC(=O)O)nc3ccccc32)c1` [CBK264682], the viability at 28.5 h, 10 µM was determined as 93.5%. On the same count and under the same terms, with `c1cnc(OC2CCN(CC3CCCCC3)CC2)c(OC2CCCCC2)n1` [CBK082879T] the figure was 101%. Still for that read-out and setting: with `OCCN1CCN(Cc2cc(Br)cs2)CC1` [CBK261758] the figure was 96%; with `Cn1c(=O)n(CC(=O)NCc2cccs2)c2cccnc21` [CBK283907], 90.3%. Still for that read-out and setting: with `CC(C)(C)n1ncc2c(=O)n(CC(=O)Nc3ccccc3)cnc21` [CBK287541] the figure was 115%; with `COc1ccc(C(=O)Nc2c(C)nn(C)c2N2CCNCC2)cc1` [CBK050306T], 94.5%; with `CN1C(=O)C(CC(=O)NCCCc2ccc(F)cc2)c2ccccc21` (stereo not drawn) [CBK282474], 106%. In the case of `Nc1ncnc(Nc2cccc(F)c2)n1` [CBK017447], the viability at 28.5 h, 10 µM worked out at 91.7%. Same read-out and setting: as for `COc1ccc2nc(Nc3nnc(-c4ccco4)o3)sc2c1` [CBK287486], the figure is 102%; as for `CC(C)CNc1nccnc1-c1cccc(C=O)c1` [CBK088744], 100%; as for `Cc1ccc(OC(C)C(=O)Nc2cc(C(C)(C)C)on2)cc1C` (stereo not drawn) [CBK288251], 107%. The same measure, in the same setting: with `O=C(O)CNC(=O)Cn1ccc2ccc(OCc3ccccc3)cc21` [CBK286644] the figure was 85.9%; with `CCCn1cnc2cc(NC(=O)c3ccc(=O)n(CC(=O)N(C)c4ccccc4)c3)ccc21` [CBK286026], 94.3%. The same measure, in the same setting: as for `CCOC(=O)c1cnc2nc(N3CCOCC3)nn2c1N` [CBK007371], the figure is 96.2%; as for `Cc1cc2ccccc2n2c(=O)n(CC(=O)N3CCCCCC3)nc12` [CBK283883], 82.3%. In the case of `CCn1cc(C(=O)N2C[C@H](C(=O)OC)[C@@H](c3ccc(F)cc3)C2)cn1` [CBK283719], the viability at 28.5 h, 10 µM is 89.7%.

The values are drawn from paper PMC12040169 (PLOS Biology, 2025).
